{"source": "paper PMC4871321", "about": "(Angewandte Chemie (Weinheim an Der Bergstrasse, Germany), 2015)", "biological_target": "T1, BRD4(1) (Homo sapiens, UniProt O60885)", "T1 construct": "first bromodomain", "experiment": "biochemical", "design": "differential scanning fluorimetry, SYPRO Orange, shift of melting temperature of 2 uM bromodomain", "settings": "read-out: BRD4(1) ΔTm (°C)", "data": [{"smiles": "Cc1cc(=O)n(C)c2cc(N3C[C@@H](NC(=O)OC(C)(C)C)[C@H](C)CC3=O)ccc12", "note": "(relative stereo) [compound 22, 22]", "values": [{"measurement": "ΔTm at 10 µM", "result": 0.19, "unit": "°C"}]}, {"smiles": "Cc1cc(=O)n(C)c2cc(N3C(=O)CC[C@H](NC(=O)OC(C)(C)C)[C@H]3C)ccc12", "note": "(relative stereo) [compound 21, 21]", "values": [{"measurement": "ΔTm at 10 µM", "result": 0.33, "unit": "°C"}]}]}
